This is an account of results in patent US9796704B2, “Substituted quinazolines as receptor-type kinase inhibitors” (Symphony Evolution, Inc., priority 2002, dated 2017).

A value given as a limit tells only on which side of the number the result lay.

The IC50 is the concentration that gives 50% inhibition.

One experiment has as its target EphB4 (Homo sapiens (Human), UniProt P54760). The experiment is described as follows: EphB4 kinase inhibition, 33P phosphoryl transfer assay (radiometric). The class given is biochemical.
For the next experiment, the target named is ErbB2 (Homo sapiens (Human), UniProt P04626). Put plainly: ErbB2 kinase inhibition, AlphaScreen. In kind it is biochemical. The procedure: Kinase activity and compound inhibition are investigated using one or more of the three assay formats described below. The ATP concentrations are selected near its Michaelis-Menten constant (KM) for each individual kinase. Dose-response experiments are performed at ten different inhibitor concentrations in a 384-well plate format. […] These parameters are obtained by nonlinear regression algorithm built into ActivityBase software (available from ID Business Solutions Ltd., of Guildford, Surrey, UK). ^33P Phosphoryl Transfer Assay (Radiometric)
(In general: Alpha assays give light when donor and acceptor beads are brought close together.)

In a further experiment the target is KDR (Homo sapiens (Human), UniProt P35968). Put plainly: KDR kinase inhibition, luciferase-coupled chemiluminescent assay (LCCA). To be noted: read-out: KDR IC50.
Sequence of KDR (P35968 807-1356): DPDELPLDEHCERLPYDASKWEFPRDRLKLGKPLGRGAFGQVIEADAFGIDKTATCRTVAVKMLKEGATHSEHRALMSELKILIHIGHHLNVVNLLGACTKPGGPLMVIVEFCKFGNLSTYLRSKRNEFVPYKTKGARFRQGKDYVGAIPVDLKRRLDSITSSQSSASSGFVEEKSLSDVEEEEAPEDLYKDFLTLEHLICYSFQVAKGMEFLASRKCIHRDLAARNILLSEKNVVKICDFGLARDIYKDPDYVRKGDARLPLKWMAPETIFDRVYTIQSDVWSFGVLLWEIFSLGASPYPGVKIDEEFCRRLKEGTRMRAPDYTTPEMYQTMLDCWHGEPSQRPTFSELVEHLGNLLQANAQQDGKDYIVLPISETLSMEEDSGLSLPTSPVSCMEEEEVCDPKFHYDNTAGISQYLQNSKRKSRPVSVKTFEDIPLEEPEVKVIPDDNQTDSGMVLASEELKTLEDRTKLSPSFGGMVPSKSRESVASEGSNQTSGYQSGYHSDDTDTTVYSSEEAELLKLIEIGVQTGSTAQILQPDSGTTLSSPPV
The next experiment has as its target EGFR (Homo sapiens (Human), UniProt P00533). Put plainly: EGFR kinase inhibition, luciferase-coupled chemiluminescent assay (LCCA). To be noted: read-out: EGFR IC50.
The target in another experiment is EphA2 (Homo sapiens (Human), UniProt P29317). Put plainly: EphA2 kinase inhibition, luciferase-coupled chemiluminescent assay (LCCA). To be noted: read-out: EphA2 IC50.
Sequence of EphA2 (P29317 598-890): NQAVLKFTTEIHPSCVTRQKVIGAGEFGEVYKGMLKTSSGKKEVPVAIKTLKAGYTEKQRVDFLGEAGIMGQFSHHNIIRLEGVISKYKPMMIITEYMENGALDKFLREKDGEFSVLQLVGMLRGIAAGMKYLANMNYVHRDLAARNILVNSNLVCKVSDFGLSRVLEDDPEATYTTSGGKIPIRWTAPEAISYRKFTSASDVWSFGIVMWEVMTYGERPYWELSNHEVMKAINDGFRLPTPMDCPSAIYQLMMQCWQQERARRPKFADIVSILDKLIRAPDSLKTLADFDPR

Sequence of EphB4 (P54760 605-890): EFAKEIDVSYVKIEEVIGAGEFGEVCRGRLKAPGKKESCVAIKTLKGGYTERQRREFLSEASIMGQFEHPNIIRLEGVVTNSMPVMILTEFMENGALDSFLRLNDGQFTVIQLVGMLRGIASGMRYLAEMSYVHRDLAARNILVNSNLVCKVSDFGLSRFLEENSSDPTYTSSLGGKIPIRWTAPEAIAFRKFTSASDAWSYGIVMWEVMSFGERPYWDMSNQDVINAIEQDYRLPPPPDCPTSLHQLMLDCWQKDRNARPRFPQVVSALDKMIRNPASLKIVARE
Experimental for EphA2: (§1) Kinase activity and compound inhibition are investigated using one or more of the three assay formats described below. The ATP concentrations are selected near its Michaelis-Menten constant (KM) for each individual kinase. Dose-response experiments are performed at ten different inhibitor concentrations in a 384-well plate format. […] Typically H is close to unity.
(§2) In the LCCA assays, kinase activity is measured by the ATP consumption that is accurately measured by luciferase-coupled chemiluminescence. Greiner 384-well white clear bottom medium binding plates are used for LCCA. Briefly the kinase reaction is initiated by mixing compounds, ATP and kinases in a 20 μL volume. At the end of the kinase reaction, a 20 μL luciferase-luciferin mix is added and the chemiluminescent signal is read on a Wallac Victor^2 reader.
Experimental for KDR: as §1, §2

With `COc1cc2c(Nc3cc(Br)cc(C(F)(F)F)c3)ncnc2cc1O[C@@H]1CO[C@@H]2[C@H]1OC[C@H]2F` [Example 127, 1,4:3,6-dianhydro-5-O-[4-{[3-bromo-5-(trifluoromethyl)phenyl]amino}-6-(methyloxy)quinazolin-7-yl]-2-deoxy-2-fluoro-D-iditol], the concentration for half-maximal inhibition (IC50) against EphB4, against ErbB2, on KDR, on EGFR and at EphA2 was below 50 nM throughout.
Take `COc1cc2c(Nc3ccc(Cl)c(Cl)c3)ncnc2cc1OCCN1C(=O)c2ccccc2C1=O` [Example 193, 2-(2-{[4-[(3,4-dichlorophenyl)amino]-6-(methyloxy)quinazolin-7-yl]oxy}ethyl)-1H-isoindole-1,3(2H)-dione]: the half-inhibitory concentration (IC50) against EphB4 is below 50 nM; against ErbB2, below 50 nM; on KDR it was below 50 nM; at EGFR, below 50 nM; at EphA2, 50 to 1000 nM.
With `COc1cc2c(Nc3ccc(Cl)c(Cl)c3)ncnc2cc1OCc1noc(C2CCCCN2C(=O)OC(C)(C)C)n1` (centres unmarked) [Example 196, 1,1-dimethylethyl 2-[3-({[4-[(3,4-dichlorophenyl)amino]-6-(methyloxy)quinazolin-7-yl]oxy}methyl)-1,2,4-oxadiazol-5-yl]piperidine-1-carboxylate], the IC50 on EphB4, against ErbB2, at KDR, on EGFR and at EphA2 was below 50 nM throughout.
On to `COc1cc2c(Nc3ccc(Cl)c(Cl)c3)ncnc2cc1OCc1nc(-c2ccc(N3CCCC3)cc2)cs1` [Example 198, N-(3,4-dichlorophenyl)-6-(methyloxy)-7-({[4-(4-pyrrolidin-1-ylphenyl)-1,3-thiazol-2-yl]methyl}oxy)quinazolin-4-amine], for which the IC50 at EphB4, at ErbB2, on KDR, at EGFR and on EphA2 was below 50 nM each time.
In the case of `CCN(CC)c1ccc(-c2csc(COc3cc4ncnc(Nc5ccc(Cl)c(Cl)c5)c4cc3OC)n2)cc1` [Example 199, N-(3,4-dichlorophenyl)-7-[({4-[4-(diethylamino)phenyl]-1,3-thiazol-2-yl}methyl)oxy]-6-(methyloxy)quinazolin-4-amine], the concentration for half-maximal inhibition (IC50) against EphB4, on ErbB2, at KDR, at EGFR and on EphA2 was below 50 nM each time.
For the molecule `COc1cc2c(Nc3ccc(Cl)c(Cl)c3)ncnc2cc1OCc1csc(N2CCOCC2)n1` [Example 204, N-(3,4-dichlorophenyl)-6-(methyloxy)-7-{[(2-morpholin-4-yl-1,3-thiazol-4-yl)methyl]oxy}quinazolin-4-amine], the IC50 against EphB4, on ErbB2, on KDR, at EGFR and at EphA2 was below 50 nM each time.
For the molecule `COc1cc2c(Nc3ccc(Cl)c(Cl)c3)ncnc2cc1OCc1nc(-c2ccc(C(C)(C)C)cc2)no1` [Example 226, N-(3,4-dichlorophenyl)-7-[({3-[4-(1,1-dimethylethyl)phenyl]-1,2,4-oxadiazol-5-yl}methyl)oxy]-6-(methyloxy)quinazolin-4-amine], the IC50 against EphB4 is below 50 nM; on ErbB2, below 50 nM; on KDR it was below 50 nM; at EGFR, below 50 nM; on EphA2, 50 to 1000 nM.
In the case of `COc1cc2c(Nc3ccc(Cl)c(Cl)c3)ncnc2cc1OCc1ccc2nc(C(F)(F)F)cc(Cl)c2c1` [Example 236, 7-({[4-chloro-2-(trifluoromethyl)quinolin-6-yl]methyl}oxy)-N-(3,4-dichlorophenyl)-6-(methyloxy)quinazolin-4-amine], the IC50 at EphB4, on ErbB2, on KDR, at EGFR and on EphA2 was below 50 nM in each case.
With `COc1cc2c(Nc3ccc(Cl)c(Cl)c3)ncnc2cc1OCCC1CCCN1C` (centres unmarked) [Example 237, N-(3,4-dichlorophenyl)-6-(methyloxy)-7-{[2-(1-methylpyrrolidin-2-yl)ethyl]oxy}quinazolin-4-amine], the IC50 against EphB4, on ErbB2, on KDR, on EGFR and at EphA2 was below 50 nM each time.
As to `CCN1CCC(c2nc(COc3cc4ncnc(Nc5ccc(Cl)c(Cl)c5)c4cc3OC)no2)CC1` [Example 238, N-(3,4-dichlorophenyl)-7-({[5-(1-ethylpiperidin-4-yl)-1,2,4-oxadiazol-3-yl]methyl}oxy)-6-(methyloxy)quinazolin-4-amine], the IC50 on EphB4, at ErbB2, at KDR, on EGFR and at EphA2 was below 50 nM each time.
Take `COc1cc2c(Nc3ccc(Cl)c(Cl)c3)ncnc2cc1OCc1nc([C@@H]2CCCN2)no1` [Example 243, N-(3,4-dichlorophenyl)-6-(methyloxy)-7-[({3-[(2S)-pyrrolidin-2-yl]-1,2,4-oxadiazol-5-yl}methyl)oxy]quinazolin-4-amine]: the IC50 against EphB4, against ErbB2, on KDR, at EGFR and at EphA2 was below 50 nM each time.
As to `COc1cc2c(Nc3ccc(Cl)c(Cl)c3)ncnc2cc1OCc1csc([C@@H]2CCCN2)n1` [Example 244, N-(3,4-dichlorophenyl)-6-(methyloxy)-7-[({2-[(2S)-pyrrolidin-2-yl]-1,3-thiazol-4-yl}methyl)oxy]quinazolin-4-amine], the IC50 against EphB4, against ErbB2, at KDR, at EGFR and at EphA2 was below 50 nM throughout.
With `COc1cc2c(Nc3ccc(Cl)c(Cl)c3)ncnc2cc1OCc1csc(COC(=O)c2ccccc2)n1` [Example 245, [4-({[4-[(3,4-dichlorophenyl)amino]-6-(methyloxy)quinazolin-7-yl]oxy}methyl)-1,3-thiazol-2-yl]methyl benzoate], the concentration for half-maximal inhibition (IC50) against EphB4, on ErbB2, on KDR, at EGFR and at EphA2 was below 50 nM each time.
With “N-(3,4-dichlorophenyl)-6-(methyloxy)-7-({[3-(4-methylpiperazin-1-yl)-1,2,4-oxadiazol-5-yl]methyl}oxy)quinazolin-4-amine [Example 33]”, the IC50 on EphB4 was below 50 nM; on ErbB2 it was 50 to 1000 nM; on KDR it was below 50 nM; on EGFR, below 50 nM; on EphA2, 50 to 1000 nM.
Turning to “N-(3,4-dichlorophenyl)-6-(methyloxy)-7-{[(5-methyl-4,5,6,7-tetrahydro[1,3]thiazolo[5,4-c]pyridin-2-yl)methyl]oxy}quinazolin-4-amine hydrochloride [Example 34]”, the IC50 at EphB4 is 50 to 1000 nM; against ErbB2 it was below 50 nM; at KDR, 50 to 1000 nM; on EGFR, below 50 nM; on EphA2 it was 50 to 1000 nM.
In the case of “N-(3,4-dichlorophenyl)-7-{[(5-ethyl-4,5,6,7-tetrahydro[1,3]thiazolo[5,4-c]pyridin-2-yl)methyl]oxy}-6-(methyloxy)quinazolin-4-amine hydrochloride [Example 35]”, the IC50 on EphB4 is 50 to 1000 nM; against ErbB2, 50 to 1000 nM; on KDR, below 50 nM; at EGFR, below 50 nM; at EphA2 it was 50 to 1000 nM.
